pIC50: −log10 of the molar value. In brackets after ≈: the same amount, converted by molar mass. Where two headings read alike, the source gives them in different places.
Tests used:
Ba/F3 cells KRAS G12V = assay: Ba/F3 proliferation assay (KRAS G12V); type: cell-based; conditions: Mus musculus, BaF3, 72 h, AlamarBlue viability
Method in brief: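 Ba/F3 cells retrovirally transduced with KRAS G12 mutant, puromycin-selected, grown IL-3-independent; seeded in RPMI-1640 + 10% FCS without IL-3. Logarithmic compound dose series in duplicate, 72 h at 37° C., AlamarBlue fluorescence as % of DMSO control; IC50 from four-parameter non-linear regression.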

NCI-H358 cells = assay: NCI-H358 CTG proliferation assay (120 h) (NSCLC, G12C); type: cell-based; conditions: Homo sapiens
Experimental: (§1) NCI-H358 cells (ATCC No. CRL-5807) are dispensed into black 384-well plates, flat and clear bottom (Greiner, PNr. 781091) at a density of 200 cells per well in 60 μl RPMI-1640 ATCC-Formulation (Gibco #A10491)+10% FCS (fetal calf serum). Cells are incubated overnight at 37° C. in a humidified tissue culture incubator at 5% CO2. Compounds (10 mM stock in DMSO) are added at logarithmic dose series using the ECHO acoustic liquid handler system (Beckman Coulter), normalizing for added DMSO and including DMSO controls. All compound treatments are performed in technical duplicates. For the TO time point measurement, untreated cells are analyzed at the time of compound addition. Plates are incubated for 120 h, and cell viability is measured using CellTiter-Glo luminescent cell viability reagent (Promega product code G7570). Viability (stated as percent of control) is defined as relative luminescence units RLU of each well divided by the RLU of cells in DMSO controls. IC50 values are determined from viability measurements by non-linear regression using a four-parameter model.
(§2) IC50 values of representative compounds according to the invention measured with these assays in the indicated cell lines are presented in Table 46.

[1] = Solubility measurement (DMSO solution precipitation method); type: physicochemical; conditions: aqueous buffer, kinetic from dmso stock
Method in brief: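 A 10 mM DMSO stock was diluted to 250 μM final in McIlvaine buffer at pH 4.5 or 6.8, then shaken 24 h at ambient temperature. After filtering off precipitate, filtrate concentration was quantified by LC-UV against a fully dissolved reference in acetonitrile/water (1:1).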

NCI-H727 cells = assay: NCI-H727 CTG proliferation assay (120 h) (lung cancer, G12V); type: cell-based; conditions: Homo sapiens
Experimental: as §1, with “NCI-H727” for “NCI-H358”, “CRL-5815)” for “CRL-5807)”, “500” for “200”, “RPMI” for “RPMI-1640”, “(PAN P04-18047)+10%” for “(Gibco #A10491)+10%”, “serum, HyClone, SH30084.03).” for “serum).”
as §2

[2] = McIlvaine buffer pH 4.5, 24 h, read-out: solubility pH 4.5
[3] = McIlvaine buffer pH 6.8, 24 h, read-out: solubility pH 6.8

pIC50 (Ba/F3 cells KRAS G12V) | pIC50 (NCI-H358 cells) | solubility at 24 h [1, 2] | solubility at 24 h [1, 3] | pIC50 (NCI-H727 cells) | SMILES
7.74 | 7.42 | 135 µg/mL (≈ 197 µM) | 94 µg/mL (≈ 137 µM) | 7.68 | CCn1c(=O)n([C@@H]2CCCOC2)c2nc(-c3onc4c3CCC[C@@]43CCCc4sc(N)c(C#N)c43)nc(O[C@@H](C)C34CCCN3CCC4)c21 [I-36]
6.90 | 6.63 | > 151 µg/mL | 113 µg/mL (≈ 175 µM) | 6.74 | C[C@H](Oc1nc(-c2onc3c2CCC[C@@]32CCCc3sc(N)c(C#N)c32)nc2c1N(C)C(=O)CN2[C@@H]1CCOC1)[C@@H]1CCCN1C [I-37]
7.70 | 8.05 | > 144 µg/mL | > 139 µg/mL | 7.47 | C[C@H](Oc1nc(-c2onc3c2CCC[C@@]32CCCc3sc(N)c(C#N)c32)nc2c1ncn2[C@@H]1CCOC1)[C@@H]1CCCN1C [I-38]
7.92 | 7.72 | > 147 µg/mL | > 137 µg/mL | 7.55 | Cc1nc2c(O[C@@H](C)[C@@H]3CCCN3C)nc(-c3onc4c3CCC[C@@]43CCCc4sc(N)c(C#N)c43)nc2n1[C@@H]1CCOC1 [I-39]
7.85 | 7.77 | > 124 µg/mL | 44 µg/mL (≈ 71.7 µM) | 7.77 | Cc1cc2c(O[C@@H](C)[C@@H]3CCCN3C)nc(-c3onc4c3CCC[C@@]43CCCc4sc(N)c(C#N)c43)nc2n1[C@@H]1CCOC1 [I-40]
7.11 | 6.53 | > 137 µg/mL | 32 µg/mL (≈ 52.1 µM) | 6.97 | Cc1cn([C@@H]2CCOC2)c2nc(-c3onc4c3CCC[C@@]43CCCc4sc(N)c(C#N)c43)nc(O[C@@H](C)[C@@H]3CCCN3C)c12 [I-41]
7.96 | 7.68 | > 145 µg/mL | 112 µg/mL (≈ 182 µM) | 7.41 | Cc1nn([C@@H]2CCOC2)c2nc(-c3onc4c3CCC[C@@]43CCCc4sc(N)c(C#N)c43)nc(O[C@@H](C)[C@@H]3CCCN3C)c12 [I-42]
7.74 | 7.15 | > 147 µg/mL | 113 µg/mL (≈ 188 µM) | 7.44 | C[C@H](Oc1nc(-c2onc3c2CCC[C@@]32CCCc3sc(N)c(C#N)c32)nc2c1cnn2[C@@H]1CCOC1)[C@@H]1CCCN1C [I-43]
8.70 | 8.15 | > 157 µg/mL | 2 µg/mL (≈ 3.04 µM) | 8.70 | C[C@@H]1COC[C@H](n2c(=O)n(C)c3c(O[C@@H](C)[C@@H]4CCCN4C)nc(-c4onc5c4CCC[C@@]54CCCc5sc(N)c(C#N)c54)nc32)C1 [I-44]
9.00 | 8.30 | > 135 µg/mL | 85 µg/mL (≈ 129 µM) | 9.00 | C[C@H](Oc1nc(-c2onc3c2CCC[C@@]32CCCc3sc(N)c(C#N)c32)nc2c1n(C)c(=O)n2[C@@]12COC[C@@H]1C2)[C@@H]1CC[C@H](C)N1C [I-45]
9.00 | 8.22 | > 150 µg/mL | 67 µg/mL (≈ 99.6 µM) | 8.70 | CO[C@@H]1C[C@@H]([C@H](C)Oc2nc(-c3onc4c3CCC[C@@]43CCCc4sc(N)c(C#N)c43)nc3c2n(C)c(=O)n3[C@@]23COC[C@@H]2C3)N(C)C1 [I-46]
9.00 | 8.52 | > 145 µg/mL | > 142 µg/mL | 8.70 | C[C@H](Oc1nc(-c2onc3c2CCC[C@@]32CCCc3sc(N)c(C#N)c32)nc2c1COC[C@]21CCOC1)[C@@H]1CCCN1C [I-54]
9.00 | 8.30 | > 159 µg/mL | > 137 µg/mL | 8.52 | C[C@H](Oc1nc(-c2onc3c2CCC[C@@]32CCCc3sc(N)c(C#N)c32)nc2c1CN(C1COC1)C[C@]21CCOC1)[C@@H]1CC[C@H](C)N1C [I-55]
8.70 | 8.22 | > 157 µg/mL | > 147 µg/mL | 8.40 | C[C@H](Oc1nc(-c2onc3c2CCC[C@@]32CCCc3sc(N)c(C#N)c32)nc2c1CN(C1COC1)C[C@]21CCOC1)[C@@H]1CCCN1C [I-56]
8.70 | 8.40 | > 167 µg/mL | 72 µg/mL (≈ 105 µM) | 8.52 | CO[C@H]1CCN(C)[C@@H]1[C@H](C)Oc1nc(-c2onc3c2CCC[C@@]32CCCc3sc(N)c(C#N)c32)nc2c1CN(C1COC1)C[C@]21CCOC1 [I-57]
8.70 | 8.30 | > 167 µg/mL | 122 µg/mL (≈ 177 µM) | 8.30 | CO[C@@H]1C[C@@H]([C@H](C)Oc2nc(-c3onc4c3CCC[C@@]43CCCc4sc(N)c(C#N)c43)nc3c2CN(C2COC2)C[C@]32CCOC2)N(C)C1 [I-58]
8.70 | 8.40 | > 161 µg/mL | 37 µg/mL (≈ 56 µM) | 8.70 | CO[C@H]1CCN(C)[C@@H]1[C@H](C)Oc1nc(-c2noc3c2CCC[C@@]32CCCc3sc(N)c(C#N)c32)nc2c1n(C)c(=O)n2[C@@H]1CCOC1 [II-1]
8.70 | 8.40 | > 154 µg/mL | > 153 µg/mL | 8.52 | C[C@H](Oc1nc(-c2noc3c2CCC[C@@]32CCCc3sc(N)c(C#N)c32)nc2c1n(C)c(=O)n2[C@@H]1CCOC1)[C@@H]1CCCN1C [II-2]
8.70 | 8.10 | > 151 µg/mL | 11 µg/mL (≈ 16.3 µM) | 8.30 | CO[C@H]1CCN(C)[C@@H]1[C@H](C)Oc1nc(-c2noc3c2CCC[C@@]32CCCc3sc(N)c(C#N)c32)nc2c1n(C)c(=O)n2[C@@H]1CCCOC1 [II-3]
8.30 | 7.46 | > 139 µg/mL | 104 µg/mL (≈ 173 µM) | 7.92 | C[C@H](Oc1nc(-c2noc3c2CCC[C@@]32CCCc3sc(N)c(C#N)c32)nc2c1cnn2[C@@H]1CCOC1)[C@@H]1CCCN1C [II-4]
9.00 | 8.52 | > 144 µg/mL | 62 µg/mL (≈ 92.2 µM) | 9.00 | CO[C@@H]1C[C@@H]([C@H](C)Oc2nc(-c3noc4c3CCC[C@@]43CCCc4sc(N)c(C#N)c43)nc3c2n(C)c(=O)n3[C@@]23COC[C@@H]2C3)N(C)C1 [II-6]
9.00 | 9.00 | > 142 µg/mL | > 143 µg/mL | 9.00 | C[C@H](Oc1nc(-c2noc3c2CCC[C@@]32CCCc3sc(N)c(C#N)c32)nc2c1COC[C@]21CCOC1)[C@@H]1CCCN1C [II-8]
7.55 | 7.13 | > 141 µg/mL | > 138 µg/mL | 7.66 | C[C@H](Oc1nc(-c2noc3c2CCC[C@@]32CCCc3sc(N)c(C#N)c32)nc2c1COC[C@@]21CCOC1)[C@@H]1CCCN1C [II-9a]
8.70 | 8.30 | > 141 µg/mL | > 137 µg/mL | 8.40 | C[C@H](Oc1nc(-c2noc3c2CCC[C@@]32CCCc3sc(N)c(C#N)c32)nc2c1CCO[C@]21CCOC1)[C@@H]1CCCN1C [II-9b]
9.00 | 8.52 | > 144 µg/mL | 45 µg/mL (≈ 71.1 µM) | 9.00 | CO[C@@H]1C[C@@H]([C@H](C)Oc2nc(-c3noc4c3CCC[C@@]43CCCc4sc(N)c(C#N)c43)nc3c2COC[C@]32CCOC2)N(C)C1 [II-11]
9.00 | 8.40 | > 152 µg/mL | > 140 µg/mL | 8.52 | C[C@H](Oc1nc(-c2noc3c2CCC[C@@]32CCCc3sc(N)c(C#N)c32)nc2c1CN(C1COC1)C[C@]21CCOC1)[C@@H]1CCCN1C [II-12]
9.00 | 8.70 | > 151 µg/mL | 52 µg/mL (≈ 75.6 µM) | 9.00 | CO[C@H]1CCN(C)[C@@H]1[C@H](C)Oc1nc(-c2noc3c2CCC[C@@]32CCCc3sc(N)c(C#N)c32)nc2c1CN(C1COC1)C[C@]21CCOC1 [II-13]

— patent US20250019385A1, “SPIROCYCLIC ANNULATED 2-AMINO-3-CYANO THIOPHENES AND DERIVATIVES FOR THE TREATMENT OF CANCER” (Boehringer Ingelheim International GmbH, priority 2023, published 2025)
